Experimental data taken from patent US9687539B2, “CD4+ T survivin epitopes and uses thereof” (Commissariat a I'Energie Atomique, priority 2005, dated 2017).
Substitutions are numbered along the chain they refer to. No end group written: not given here.

Tests used:
HLA-DR1 (DRB1*0101) = HLA-DR1 (DRB1*0101) (Homo sapiens, UniProt P01903+P01911, A100R/D57E/F55L/F60I/F76Y/I96L/L162R/M171V/P40L/Q125E/R42F/V115G/Y59C); experiment: Competitive HLA II/peptide binding assay, HLA-DR1; conditions: competition with biotinylated tracer; 3 independent experiments
[1] = tested on: 12 predominant HLA II molecules; experiment: Binding to the 12 predominant HLA II molecules, summary; set-up: species or system human; conditions: for No. of molecules fixed: number of the 12 predominant HLA II molecules bound (IC50 < 1000 nM)
Description: The assays for binding to HLA II molecules are competitive binding assays with immunoenzymatic visualization, as described in U.S. Pat. No. 6,649,166, Texier et al., J. Immunol., 2000, 164, 3177-3184 and Texier et al., Eur. J. Immunol., 2001, 31, 1837-1846, for the HLA-DR molecules, and in PCT international application WO 03/040299 and Castelli et al., J. Immunol., 2002, 169, 6928-6934, for the HLA-DP4 molecule. The use of these assays for measuring the binding activity of peptides derived from various antigens is illustrated in U.S. Pat. No. 6,649,166 and PCT international applications WO 02/090382, WO 03/040299 and WO 2004/014936.
The sensitivity of each assay is reflected by the IC50 values observed with the nonbiotinylated peptides which correspond to the tracers; the IC50 values of the tracers vary by a factor of less than three.

HLA-DRB5 (DRB5*0101) = HLA-DRB5 (DRB5*0101) (Homo sapiens, UniProt P01903+Q30154); experiment: Competitive HLA II/peptide binding assay, HLA-DRB5; conditions: competition with biotinylated tracer; 3 independent experiments
HLA-DR15 (DRB1*1501) = HLA-DR15 (DRB1*1501) (Homo sapiens, UniProt P01903+P01911); experiment: Competitive HLA II/peptide binding assay, HLA-DR15; conditions: competition with biotinylated tracer; 3 independent experiments
HLA-DR7 (DRB1*0701) = HLA-DR7 (DRB1*0701) (Homo sapiens, UniProt P01903+P01911, A100R/A102G/A103Q/D57E/D86V/E43K/F76Y/K127E/L162R/M171V/P40G/Q125H/Q99D/R33Q/R42Y/R54Q/S133A/S66F/T210M/V115G/Y107V/Y59L/Y89S); experiment: biochemical; conditions: competition with biotinylated tracer; 3 independent experiments; read-out: Binding activity DR7 (IC50)
HLA-DRB4 (DRB4*0101) = HLA-DRB4 (DRB4*0101) (Homo sapiens, UniProt P01903+P13762, G164S); experiment: Competitive HLA II/peptide binding assay, HLA-DRB4; conditions: competition with biotinylated tracer; 3 independent experiments
HLA-DR3 (DRB1*0301) = HLA-DR3 (DRB1*0301) (Homo sapiens, UniProt P01903+P01911, A100K/A102G/A103R/A169T/F55Y/I96L/K41T/L162R/M171V/P40S/Q125H/Q178H/Q39Y/R42S/S66N/T106N/T262R/W38E/Y61H); experiment: biochemical; conditions: competition with biotinylated tracer; 3 independent experiments; read-out: Binding activity DR3 (IC50)
HLA-DRB3 (DRB3*0101) = HLA-DRB3 (DRB3*0101) (Homo sapiens, UniProt P01903+P79483); experiment: Competitive HLA II/peptide binding assay, HLA-DRB3; conditions: competition with biotinylated tracer; 3 independent experiments
HLA-DR4 (DRB1*0401) = HLA-DR4 (DRB1*0401) (Homo sapiens, UniProt P01903+P01911, A100K/A169T/F76Y/I96L/K127E/L162R/M171V/N62H/P40V/Q125Y/R42H/S133A/S149N/S66Y/V115G/V209L/W38E); experiment: Competitive HLA II/peptide binding assay, HLA-DR4; conditions: competition with biotinylated tracer; 3 independent experiments
HLA-DP402 (DP*0402) = molecular target: T1, HLA-DP402 (DP*0402) (Homo sapiens, UniProt P04440+P20036, A65V/A84D/A85E/L207M); experiment: biochemical; conditions: competition with biotinylated tracer; 3 independent experiments; read-out: Binding activity DP402 (IC50)
T1 sequence (P04440 30-258 A65V/A84D/A85E): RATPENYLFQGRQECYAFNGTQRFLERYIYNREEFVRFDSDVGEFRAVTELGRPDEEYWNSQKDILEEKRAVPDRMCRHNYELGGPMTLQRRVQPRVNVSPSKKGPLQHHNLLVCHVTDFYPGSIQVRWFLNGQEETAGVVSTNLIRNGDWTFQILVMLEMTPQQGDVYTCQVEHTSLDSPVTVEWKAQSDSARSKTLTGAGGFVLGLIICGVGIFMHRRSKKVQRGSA
T1 sequence (P20036 29-260): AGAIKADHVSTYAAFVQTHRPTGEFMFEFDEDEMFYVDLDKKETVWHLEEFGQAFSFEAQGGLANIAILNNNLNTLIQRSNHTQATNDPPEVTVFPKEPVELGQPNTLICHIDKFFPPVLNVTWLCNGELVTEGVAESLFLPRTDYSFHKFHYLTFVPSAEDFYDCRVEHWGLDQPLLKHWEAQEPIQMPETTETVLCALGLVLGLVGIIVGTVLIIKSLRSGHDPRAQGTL

HLA-DP401 (DP*0401) = molecular target: T2, HLA-DP401 (DP*0401) (Homo sapiens, UniProt P04440+P20036); experiment: biochemical; conditions: competition with biotinylated tracer; 3 independent experiments; read-out: Binding activity DP401 (IC50)
T2 sequence (P04440 30-258): T1 sequence (P04440 30-258 A65V/A84D/A85E) with V36A, D55A, E56A
T2 sequence (P20036 29-260): T1 sequence (P20036 29-260)

HLA-DR13 (DRB1*1301) = HLA-DR13 (DRB1*1301) (Homo sapiens, UniProt P01903+P01911, A100E/A169T/K41T/L162R/M171V/P40S/Q125H/Q178H/Q39Y/Q99D/R42S/S66N/T262R/W38E/Y61H); experiment: Competitive HLA II/peptide binding assay, HLA-DR13; conditions: competition with biotinylated tracer; 3 independent experiments; read-out: Binding activity DR13 (IC50)
HLA-DR11 (DRB1*1101) = HLA-DR11 (DRB1*1101) (Homo sapiens, UniProt P01903+P01911, A100R/A169T/A87E/I96F/K41T/L162R/M171V/P40S/Q125H/Q178H/Q39Y/Q99D/R42S/S66Y/T262R/V115G/W38E); experiment: biochemical; conditions: competition with biotinylated tracer; 3 independent experiments; read-out: Binding activity DR11 (IC50)

Row | Compound | IC50 (HLA-DR1 (DRB1*0101)) [µM] | Binding specificity for HLA II molecules [1] | No. of molecules fixed [1] | IC50 (HLA-DRB5 (DRB5*0101)) [µM] | IC50 (HLA-DR15 (DRB1*1501)) [µM] | IC50 (HLA-DR7 (DRB1*0701)) [µM] | IC50 (HLA-DRB4 (DRB4*0101)) [µM] | IC50 (HLA-DR3 (DRB1*0301)) [µM] | IC50 (HLA-DRB3 (DRB3*0101)) [µM] | IC50 (HLA-DR4 (DRB1*0401)) [µM] | IC50 (HLA-DP402 (DP*0402)) [µM] | IC50 (HLA-DP401 (DP*0401)) [µM] | IC50 (HLA-DR13 (DRB1*1301)) [µM] | IC50 (HLA-DR11 (DRB1*1101)) [µM]
1 | CC(C)C[C@H](NC(=O)[C@H](Cc1ccccc1)NC(=O)[C@@H]1CCCN1C(=O)[C@H](CCC(N)=O)NC(=O)[C@H](Cc1c[nH]c2ccccc12)NC(=O)[C@H](C)NC(=O)[C@@H]1CCCN1C(=O)[C@@H]1CCCN1C(=O)[C@H](CC(C)C)NC(=O)[C@@H](NC(=O)[C@@H]1CCCN1)[C@@H](C)O)C(=O)N[C@@H](CCCCN)C(=O)N[C@@H](CC(=O)O)C(=O)N[C@@H](Cc1c[nH]cn1)C(=O)N[C@@H](CCCNC(=N)N)C(=O)O [4-18, P T L P P A W Q P F L K D H R] | 45 | bind only to the HLA-DR11 molecule | 1 | 5.48 | > 100 | > 100 | > 100 | > 100 | > 100 | > 100 |  |  |  | 
2 | CC[C@H](C)[C@H](NC(=O)[C@H](CCCCN)NC(=O)[C@@H](N)CC(N)=O)C(=O)N[C@@H](C)C(=O)N[C@@H](CCCCN)C(=O)N[C@@H](CCC(=O)O)C(=O)N[C@H](C(=O)N[C@@H](CC(N)=O)C(=O)N[C@@H](CC(N)=O)C(=O)N[C@@H](CCCCN)C(=O)N[C@@H](CCCCN)C(=O)N[C@@H](CCCCN)C(=O)N[C@@H](CCC(=O)O)C(=O)N[C@@H](Cc1ccccc1)C(=O)N[C@@H](CCC(=O)O)C(=O)O)[C@@H](C)O [111-125, N K I A K E T N N K K K E F E] |  |  | 1 |  |  |  |  |  |  |  | > 100 | > 100 |  | 
3 | AGFIHCPTENEPDLA [peptide 41-55, A G F I H C P T E N E P D L A] |  | binds only to the HLA-DRB4 molecule | 1 |  |  |  |  | > 100 |  | 5 | > 100 | > 100 | > 100 | 
4 | DPIEEHKKHSSGCAF [72-86, D P I E E H K K H S S G C A F] |  |  | 0 |  | > 100 | > 100 | > 100 | > 100 | > 100 | > 100 | > 100 | > 100 |  | > 100
5 | ERMAEAGFIHCPTEN [36-50, E R M A E A G F I H C P T E N] |  |  | 0 |  | > 100 | 17 |  | > 100 | > 100 | 17 |  |  | > 100 | 
6 | FCFKELEGWEPDDDP [59-73, F C F K E L E G W E P D D D P] |  |  | 0 | 45 | 8 |  | > 100 | > 100 | > 100 |  | > 100 | > 100 | > 100 | 
7 | GEFLKLDRERAKNKI [99-113, G E F L K L D R E R A K N K I] |  |  | 3 | 0.022 | 1.2 |  | 22 |  | > 100 |  | > 100 |  |  | 0.04
8 | KEFEETAKKVRRAIE [122-136, K E F E E T A K K V R R A I E] |  |  | 3 |  | 1.2 | 20 | > 100 |  | > 100 | > 100 | > 100 | > 100 |  | 
9 | KQFEELTLGEFLKLD [91-105, K Q F E E L T L G E F L K L D] |  | high affinity for the DR1, DR7, DRB5, DP401 and DP402 molecules | 5 |  |  |  | > 100 | > 100 | 30 |  |  |  | > 100 | 2.35
10 | LKLDRERAKNKIAKE [102-116, L K L D R E R A K N K I A K E] |  |  | 1 | 0.018 | > 100 |  | > 100 | > 100 | > 100 | > 100 | > 100 | > 100 | > 100 | 
11 | MGAPTLPPAWQPFLK [1-15, M G A P T L P P A W Q P F L K] |  | bind only to the HLA-DR11 molecule | 1 | 8 |  | > 100 | > 100 | > 100 | > 100 | > 100 |  |  | > 100 | 
